Measured values as given in publication PMC5893282 (ACS infectious diseases, 2018).

What was measured:
[1] = system: E. coli ΔtolC PrecA-GFP SOS reporter; assay: Cell-based SOS reporter assay; conditions: ciprofloxacin 128 ng/mL, 2 hours, ΔtolC reporter strain
[2] = molecular target: FlAsH-LexAPa with RecA* (Pseudomonas aeruginosa, UniProt P37452); assay: Pilot screen of Microsource Spectrum library with FlAsH-LexAPa; type: biochemical, P. aeruginosa; conditions: fixed concentration of 16 μM, single endpoint
Sequence of FlAsH-LexAPa with RecA* (P37452 81-204): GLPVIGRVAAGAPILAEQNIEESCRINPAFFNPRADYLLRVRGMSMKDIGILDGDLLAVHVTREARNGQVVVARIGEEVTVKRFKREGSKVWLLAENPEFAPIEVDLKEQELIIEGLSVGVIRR

Compound	Increase in GFP fluorescence over the unstressed control [1]	Hit in pilot screen [2]
O=C(O)c1cn(C2CC2)c2cc(N3CCNCC3)c(F)cc2c1=O [ciprofloxacin]	~ 50 fold	–
Cc1ccc(C(=O)Nc2ccc(S(=O)(=O)O)c3cc(S(=O)(=O)O)cc(S(=O)(=O)O)c23)cc1NC(=O)c1cccc(NC(=O)Nc2cccc(C(=O)Nc3cc(C(=O)Nc4ccc(S(=O)(=O)O)c5cc(S(=O)(=O)O)cc(S(=O)(=O)O)c45)ccc3C)c2)c1 [suramin]	–	identified in this pilot screen
